Consider seven compounds from ChEMBL document CHEMBL2069178, “A combined targeted/phenotypic approach for the identification of new antiangiogenics agents active on a zebrafish model: from in silico screening to cyclodextrin formulation” (Bioorg Med Chem Lett, 2012).

The source made the active and inactive calls. No cut-off for these calls is given here.

Series [1] concerns HUVEC. Description: Antiangiogenic activity in HUVEC co-cultured with vascular smooth muscle cells assessed as inhibition of network formation at 1.8 after 72 hrs. The note with it: Homo sapiens. It counts as functional, cell-based.
Series [2] has as its system HUVEC. Kind of series: Antiangiogenic activity in HUVEC co-cultured with vascular smooth muscle cells assessed as inhibition of cell growth at […] after 72 hrs. Format: functional, cell-based. The conditions noted are these: Homo sapiens.
Series [3] deals with HUVEC. Description: Antiangiogenic activity in HUVEC co-cultured with vascular smooth muscle cells assessed as inhibition of network formation at […] after 72 hrs. It counts as functional, cell-based. The conditions noted are these: Homo sapiens.
Series [4] relates to HUVEC. Kind of series: Antiangiogenic activity in HUVEC co-cultured with vascular smooth muscle cells assessed as inhibition of network formation at 10 to 15 uM after 72 hrs. Format: functional, cell-based. The note with it: Homo sapiens.
The subject of series [5] is HUVEC. Description: Antiangiogenic activity in HUVEC co-cultured with vascular smooth muscle cells assessed as inhibition of network formation at 1.8 to 15 uM after 72 hrs. It counts as functional, cell-based. The note with it: Homo sapiens.
The test system of series [6] is HUVEC. Description: Cytotoxicity against HUVEC co-cultured with vascular smooth muscle cells assessed as cell death at 16 uM. Format: cell-based. The note with it: human.
For series [7], the target named is Proto-oncogene tyrosine-protein kinase Src (Homo sapiens) (UniProt P12931). Kind of series: Inhibition of c-Src at 100 uM.
Chain of Proto-oncogene tyrosine-protein kinase Src (Homo sapiens) (P12931 2-536 limits assumed): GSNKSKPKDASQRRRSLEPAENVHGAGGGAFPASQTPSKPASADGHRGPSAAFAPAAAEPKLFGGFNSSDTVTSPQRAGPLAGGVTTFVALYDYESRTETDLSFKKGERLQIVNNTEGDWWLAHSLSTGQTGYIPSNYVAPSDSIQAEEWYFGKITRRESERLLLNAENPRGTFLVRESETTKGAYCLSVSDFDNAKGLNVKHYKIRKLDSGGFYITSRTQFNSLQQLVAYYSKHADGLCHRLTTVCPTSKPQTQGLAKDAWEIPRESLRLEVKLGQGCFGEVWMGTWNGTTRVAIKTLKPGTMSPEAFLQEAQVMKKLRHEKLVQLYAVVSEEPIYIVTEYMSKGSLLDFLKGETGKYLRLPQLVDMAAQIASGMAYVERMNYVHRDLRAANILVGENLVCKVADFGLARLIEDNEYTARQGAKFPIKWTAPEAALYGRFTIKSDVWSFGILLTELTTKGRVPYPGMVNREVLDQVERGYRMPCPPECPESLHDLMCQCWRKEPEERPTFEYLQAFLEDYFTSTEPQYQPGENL
The target in series [8] is Ephrin type-B receptor 4 (Homo sapiens) (UniProt P54760). Kind of series: Inhibition of EphB4 at 10 uM.
Series [9] deals with 3-phosphoinositide-dependent protein kinase 1 (Homo sapiens) (UniProt O15530). Kind of series: Inhibition of PDK1 at 10 uM.
Chain of 3-phosphoinositide-dependent protein kinase 1 (Homo sapiens) (O15530 whole entry, looked up): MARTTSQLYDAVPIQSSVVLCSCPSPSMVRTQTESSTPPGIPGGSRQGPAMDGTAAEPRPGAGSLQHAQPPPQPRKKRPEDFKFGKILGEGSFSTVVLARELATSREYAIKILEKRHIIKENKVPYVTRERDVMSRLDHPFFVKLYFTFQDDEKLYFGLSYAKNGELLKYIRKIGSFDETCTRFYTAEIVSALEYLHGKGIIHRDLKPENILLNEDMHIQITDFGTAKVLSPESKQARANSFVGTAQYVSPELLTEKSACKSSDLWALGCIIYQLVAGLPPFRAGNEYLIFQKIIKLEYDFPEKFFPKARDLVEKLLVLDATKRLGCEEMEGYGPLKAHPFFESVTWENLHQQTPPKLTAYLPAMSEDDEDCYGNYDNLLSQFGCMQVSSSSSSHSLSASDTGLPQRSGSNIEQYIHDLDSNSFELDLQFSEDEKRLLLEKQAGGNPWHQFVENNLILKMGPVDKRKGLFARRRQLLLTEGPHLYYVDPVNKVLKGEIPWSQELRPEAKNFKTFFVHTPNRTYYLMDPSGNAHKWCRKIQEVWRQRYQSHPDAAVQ
In series [10] the target is Focal adhesion kinase 1 (Homo sapiens) (UniProt Q05397). Kind of series: Inhibition of FAK at 10 uM.
For series [11], the species on record is Homo sapiens. Kind of series: Inhibition of PKB at 10 uM.
Series [12] addresses Tyrosine-protein kinase JAK2 (Homo sapiens) (UniProt O60674). Description: Inhibition of Jak2 at 10 uM.
For series [13], the target named is Tyrosine-protein kinase receptor UFO (Homo sapiens) (UniProt P30530). Kind of series: Inhibition of Axl at 10 uM.
Series [14] concerns the target T1, Vascular endothelial growth factor receptor 2 (Homo sapiens, UniProt P35968). Description: Inhibition of VEGFR-2 at 10 uM.
Series [15] has as its target Epidermal growth factor receptor (Homo sapiens) (UniProt P00533). Description: Inhibition of HER-1 at 10 uM.
Series [16] deals with Proto-oncogene tyrosine-protein kinase receptor Ret (Homo sapiens) (UniProt P07949). Description: Inhibition of Ret at 10 uM.
The target in series [17] is Hepatocyte growth factor receptor (Homo sapiens) (UniProt P08581). Kind of series: Inhibition of Met at 10 uM.
Series [18] is filed under the species Homo sapiens. Kind of series: Inhibition of PKA at 10 uM.
Series [19] in a line: Permeability of the compound assessed as membrane retention by PAMPA. Format: ADME. Background: In PAMPA a lipid-coated filter parts donor from acceptor wells.
The target of series [20] is Angiopoietin-1 receptor (Homo sapiens) (UniProt Q02763). Kind of series: Inhibition of Tek at 10 uM.
The target in series [21] is Insulin-like growth factor 1 receptor (Homo sapiens) (UniProt P08069). Kind of series: Inhibition of IGF-1R at 10 uM.
For series [22], the system named is HUVEC. Kind of series: Cytotoxicity against HUVEC co-cultured with vascular smooth muscle cells assessed as rounded-up, unconnected and unicellular morphology phenotype. The note with it: human. Format: cell-based.
Series [23] concerns the target T1, Vascular endothelial growth factor receptor 2. Kind of series: Inhibition of VEGFR2 expressed in porcine aortic endothelial cells. Format: cell-based, Endothelial cell.
The species entered for series [24] is Homo sapiens. Kind of series: Inhibition of FGFR3 […] mutant at 10 uM.
Series [25] has as its system Liver microsomes. Kind of series: Metabolic stability of the compound in human liver microsomes assessed as compound remaining. It counts as ADME, Microsome. In general terms: Liver microsomes are vesicles of endoplasmic reticulum, rich in cytochrome P450 enzymes.
In series [26] the target is Proto-oncogene tyrosine-protein kinase Src (Homo sapiens) (UniProt P12931). Kind of series: Inhibition of Src at 10 uM.
Series [27] is filed under the species Danio rerio. Kind of series: Toxicity in embryos of zebrafish assessed as induction of growth malformation at 0.5 to 2 uM treated 16 hrs post fertilization measured after 24 hrs. Format: organism-based. The note with it: in vivo.
The test system of series [28] is Serine/threonine-protein kinase B-raf (Homo sapiens), P15056 [V600E]. Kind of series: Inhibition of B-Raf V599E mutant at 10 uM.
The target in series [29] is Cyclin-dependent kinase 2 (Homo sapiens) (UniProt P24941). Kind of series: Inhibition of CDK2A at 10 uM.
In series [30] the test system is HUVEC. Description: Antiangiogenic activity in HUVEC co-cultured with vascular smooth muscle cells assessed as inhibition of network formation at 1.8 to 16 uM after 72 hrs. Format: functional, cell-based. The note with it: Homo sapiens.
Series [31] addresses Receptor-type tyrosine-protein kinase FLT3 (Homo sapiens) (UniProt P36888). Kind of series: Inhibition of Flt-3 at 10 uM.
Series [32] is described as follows: Apparent permeability of the compound assessed as membrane permeation by PAMPA. Format: ADME.
In series [33] the target is Tyrosine-protein kinase ABL1 (Homo sapiens, UniProt P00519). Kind of series: Inhibition of Abl.
Chain of Tyrosine-protein kinase ABL1 (P00519 whole entry): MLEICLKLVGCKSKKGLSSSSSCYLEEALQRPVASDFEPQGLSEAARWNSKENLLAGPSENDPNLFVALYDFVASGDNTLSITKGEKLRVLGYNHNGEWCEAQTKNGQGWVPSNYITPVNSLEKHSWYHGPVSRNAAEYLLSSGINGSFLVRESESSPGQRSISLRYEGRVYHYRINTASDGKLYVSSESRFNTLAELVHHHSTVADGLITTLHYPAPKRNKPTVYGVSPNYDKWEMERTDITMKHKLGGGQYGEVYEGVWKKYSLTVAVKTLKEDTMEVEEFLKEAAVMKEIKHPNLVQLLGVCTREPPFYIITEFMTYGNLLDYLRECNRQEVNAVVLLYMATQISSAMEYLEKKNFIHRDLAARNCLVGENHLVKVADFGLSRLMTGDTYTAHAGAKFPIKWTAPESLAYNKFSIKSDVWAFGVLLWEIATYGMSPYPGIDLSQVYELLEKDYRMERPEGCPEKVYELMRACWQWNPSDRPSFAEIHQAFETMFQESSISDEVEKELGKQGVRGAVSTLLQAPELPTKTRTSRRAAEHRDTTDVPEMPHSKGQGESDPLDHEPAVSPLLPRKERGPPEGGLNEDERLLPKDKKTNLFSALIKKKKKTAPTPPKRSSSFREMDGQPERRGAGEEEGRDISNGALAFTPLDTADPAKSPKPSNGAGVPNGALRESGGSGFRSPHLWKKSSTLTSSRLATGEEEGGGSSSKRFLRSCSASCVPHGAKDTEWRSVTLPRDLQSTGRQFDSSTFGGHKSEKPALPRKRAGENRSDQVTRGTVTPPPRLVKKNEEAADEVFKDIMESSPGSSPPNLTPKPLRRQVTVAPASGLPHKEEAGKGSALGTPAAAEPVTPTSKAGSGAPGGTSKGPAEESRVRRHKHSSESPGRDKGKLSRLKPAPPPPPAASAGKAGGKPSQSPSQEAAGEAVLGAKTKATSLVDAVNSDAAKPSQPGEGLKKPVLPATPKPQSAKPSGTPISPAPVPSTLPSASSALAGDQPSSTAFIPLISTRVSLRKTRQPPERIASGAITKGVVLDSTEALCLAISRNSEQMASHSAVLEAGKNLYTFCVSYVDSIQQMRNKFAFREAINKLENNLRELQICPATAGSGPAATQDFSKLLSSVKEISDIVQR

T1 sequence (P35968 whole entry): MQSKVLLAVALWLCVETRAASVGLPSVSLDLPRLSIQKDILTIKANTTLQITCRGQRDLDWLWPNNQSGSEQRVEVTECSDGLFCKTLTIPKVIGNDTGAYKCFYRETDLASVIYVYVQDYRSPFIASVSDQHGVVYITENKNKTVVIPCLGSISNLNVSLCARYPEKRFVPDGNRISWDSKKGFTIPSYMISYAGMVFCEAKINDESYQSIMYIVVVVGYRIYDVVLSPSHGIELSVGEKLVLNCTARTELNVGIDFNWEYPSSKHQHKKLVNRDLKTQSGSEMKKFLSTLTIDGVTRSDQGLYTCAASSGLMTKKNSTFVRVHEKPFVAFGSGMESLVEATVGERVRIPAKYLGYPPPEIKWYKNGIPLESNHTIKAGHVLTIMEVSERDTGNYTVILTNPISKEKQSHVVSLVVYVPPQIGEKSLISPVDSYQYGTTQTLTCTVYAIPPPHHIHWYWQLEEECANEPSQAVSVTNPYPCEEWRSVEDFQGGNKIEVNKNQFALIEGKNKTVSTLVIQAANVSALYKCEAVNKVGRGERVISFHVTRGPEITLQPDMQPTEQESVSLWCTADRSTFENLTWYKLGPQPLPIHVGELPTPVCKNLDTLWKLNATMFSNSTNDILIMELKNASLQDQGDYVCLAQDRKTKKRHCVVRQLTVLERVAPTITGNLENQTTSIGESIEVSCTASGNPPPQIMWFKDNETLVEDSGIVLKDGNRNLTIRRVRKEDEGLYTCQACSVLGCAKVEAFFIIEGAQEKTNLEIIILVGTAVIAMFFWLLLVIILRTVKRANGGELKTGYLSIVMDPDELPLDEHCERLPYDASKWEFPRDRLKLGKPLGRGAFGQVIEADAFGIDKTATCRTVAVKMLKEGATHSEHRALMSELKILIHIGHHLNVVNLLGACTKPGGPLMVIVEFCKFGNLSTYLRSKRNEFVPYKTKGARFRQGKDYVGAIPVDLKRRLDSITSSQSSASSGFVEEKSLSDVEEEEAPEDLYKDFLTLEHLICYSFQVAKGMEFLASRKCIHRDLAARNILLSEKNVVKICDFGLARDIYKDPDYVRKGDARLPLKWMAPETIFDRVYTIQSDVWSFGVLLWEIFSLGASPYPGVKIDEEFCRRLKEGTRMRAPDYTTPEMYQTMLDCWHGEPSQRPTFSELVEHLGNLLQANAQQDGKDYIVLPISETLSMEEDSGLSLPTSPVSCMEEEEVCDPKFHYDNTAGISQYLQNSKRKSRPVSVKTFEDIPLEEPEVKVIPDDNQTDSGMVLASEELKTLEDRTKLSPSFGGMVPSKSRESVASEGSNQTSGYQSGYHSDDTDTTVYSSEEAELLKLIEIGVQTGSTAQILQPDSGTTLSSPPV
Chain of Epidermal growth factor receptor (Homo sapiens) (P00533 whole entry): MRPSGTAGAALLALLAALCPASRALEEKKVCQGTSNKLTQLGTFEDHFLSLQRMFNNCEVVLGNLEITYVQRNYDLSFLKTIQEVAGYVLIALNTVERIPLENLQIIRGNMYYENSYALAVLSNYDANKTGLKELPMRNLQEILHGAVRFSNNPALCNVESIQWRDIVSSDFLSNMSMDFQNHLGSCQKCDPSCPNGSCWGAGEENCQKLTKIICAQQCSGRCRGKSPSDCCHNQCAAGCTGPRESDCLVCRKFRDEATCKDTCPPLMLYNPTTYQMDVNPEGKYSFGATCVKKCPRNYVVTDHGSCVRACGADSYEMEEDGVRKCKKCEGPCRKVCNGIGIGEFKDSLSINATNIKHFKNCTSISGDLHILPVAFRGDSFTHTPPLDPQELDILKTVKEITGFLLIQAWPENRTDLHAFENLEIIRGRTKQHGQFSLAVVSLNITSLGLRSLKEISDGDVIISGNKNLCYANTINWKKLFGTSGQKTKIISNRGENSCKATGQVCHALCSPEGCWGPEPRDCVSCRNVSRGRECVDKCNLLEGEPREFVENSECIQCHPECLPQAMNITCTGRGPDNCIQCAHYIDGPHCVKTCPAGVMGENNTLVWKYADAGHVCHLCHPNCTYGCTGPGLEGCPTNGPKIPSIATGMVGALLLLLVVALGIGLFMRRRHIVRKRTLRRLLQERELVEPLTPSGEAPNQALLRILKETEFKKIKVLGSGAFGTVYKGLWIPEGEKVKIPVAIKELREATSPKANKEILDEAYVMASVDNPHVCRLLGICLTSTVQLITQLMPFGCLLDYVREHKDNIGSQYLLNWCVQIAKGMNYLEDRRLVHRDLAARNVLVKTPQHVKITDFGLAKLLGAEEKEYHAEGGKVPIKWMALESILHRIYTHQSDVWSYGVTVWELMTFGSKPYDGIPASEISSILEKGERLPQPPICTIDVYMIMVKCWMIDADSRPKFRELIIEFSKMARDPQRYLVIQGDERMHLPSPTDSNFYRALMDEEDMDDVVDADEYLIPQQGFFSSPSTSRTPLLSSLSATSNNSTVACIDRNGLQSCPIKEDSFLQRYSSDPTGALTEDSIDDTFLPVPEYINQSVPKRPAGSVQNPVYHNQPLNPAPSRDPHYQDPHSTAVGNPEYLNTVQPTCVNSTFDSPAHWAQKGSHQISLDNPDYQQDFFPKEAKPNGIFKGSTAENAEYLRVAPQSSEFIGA

One may read the inhibition as the share of the control response that was lost under treatment. `Cc1cn(-c2cc(NC(=O)c3ccc(C)c(Nc4nccc(-c5cccnc5)n4)c3)cc(C(F)(F)F)c2)cn1`: the inhibition result in series [1] and in series [3] was “inactive” in each case. Also, the inhibition result in series [2] and in series [4] was “Active” each time.

Regarding `Cc1nc(Nc2ncc(C(=O)Nc3c(C)cccc3Cl)s2)cc(N2CCN(CCO)CC2)n1`, the inhibition result in [2] and in [5] was “Active” in each case. Moreover, the inhibition entry in [3] is “inactive”.

As for `CSc1nc(NCCc2ccccc2)c2cnn(CC(Cl)c3ccccc3)c2n1` (stereo unspecified), in series [6], the Activity entry is “Toxic”.

Turning to `ClC(Cn1ncc2c(NCCc3ccccc3)nc(SCCN3CCOCC3)nc21)c1ccccc1` (stereo unspecified), the inhibition entry in series [7] is “inactive”.

The IC50 is the midpoint of a concentration-inhibition curve. Regarding `ClC(Cn1ncc2c(NCc3ccccc3)ncnc21)c1ccccc1` (stereo unspecified), the inhibition in series [8] amounted to 25%; in series [9] it was 0%; in series [10] it was 0%; in [11], 17%; in [12] it was 6%; in series [13], 8%. Also, the inhibition is 29% in series [14]; 56% in series [15]; 5% in [16]; 10% in series [17]; 0% in series [18]; 6% in series [20]. For the same compound, the inhibition in series [21] is 0%; in series [24], 0%; in series [26] it was 89%; in series [28] it was 42%; in series [29], 8%; in series [31], 13%. Besides, the permeability in series [19] is given as 6%. The Activity entry in series [22] was “Non-toxic”; in [27] it was “Toxic”. For the same compound, the IC50 in series [23] worked out at 1 µM. Also, the Stability in series [25] is given as 82%. The inhibition result in series [30] is “Active”.

As a reminder, the Papp is a coefficient for how fast a substance crosses the barrier. Turning to `Clc1cccc(Nc2nc(SCCN3CCOCC3)nc3c2cnn3CC(Cl)c2ccccc2)c1` (stereo unspecified), the apparent permeability (Papp) in series [32] came out at 3 ×10⁻⁶ cm/s. Besides, in [19], the permeability is reported as 47.7%. The Activity result in series [22] is reported as “Non-toxic”; in series [27], “Toxic”. Also, in series [25], the Stability came to 92.5%. For the same compound, in [30], the inhibition result was “Active”.

What is called Ki is a measure of affinity in units of concentration, obtained from inhibition or displacement. A high value points to lower affinity. Turning to `C(=C/n1ncc2c(NCCc3ccccc3)ncnc21)/c1ccccc1`, the inhibition entry in [7] is “inactive”. This compound came in with an inhibition constant Ki in series [33] of 9.75 µM.
